This assay relates to PAF-induced primary aggregation. The experiment in a line: PAF-induced primary aggregation in human platelet-rich plasma. To be noted: indomethacin-treated PRP, test compound incubated two minutes at 37° C. before sub-optimal dose of PAF, read-out: IC50, inhibition of PAF-induced primary aggregation in human platelet-rich plasma. It counts as cell-based. As to the method:
PAF-Induced Primary Aggregation in Human Platelet-Rich Plasma
Human venous blood was collected from healthy male donors, who had denied any medication during the previous 14 days. Nine volumes of blood were mixed with one volume of 3.24% trisodium citrate. The citrated blood was centrifuged at 160 g for ten minutes at 22° C. to obtain platelet rich plasma (PRP). The platelets were then counted on a Coulter counter, and the platelet count was adjusted to 200,000 per μl with plasma. The PRP was then treated with indomethacin dissolved in dimethylsulfoxide (10 μg indomethacin per ml PRP). A stock solution of PAF (C16 or C18 β-acetyl-γ-O-alkyl-L-α-phosphatidylcholine; 1 mg/ml) was prepared as a solution in chloroform-methanol (9:1 v/v). A 10 μl portion of the stock solution was evaporated to dryness under nitrogen and dissolved in 0.15M sodium chloride-0.15M Tris.HCl (90:10 v/v) buffer containing 0.25% bovine albumin. Small volumes of the PAF solution (5-15 μl) were added to 0.5 ml samples of indomethacin-treated PRP and the aggregation trace was recorded using an aggregometer. A dose reponse curve was obtained and a sub-optimal dose of PAF was determined for use in inhibition studies.
Indomethacin-treated PRP (0.5 ml) was incubated with a test compound dissolved in buffer (ca. pH 5) or dimethylsulfoxide for two minutes at 37° C. prior to addition of the sub-optimal dose of PAF. The subsequent aggregation trace was recorded and the present inhibition of PAF primary aggregation was determined by comparison with a control PAF-induced aggregation trace. (Due to variability in PAF-induced aggregation within a given PRP sample, a control PAF-induced aggregation was determined every two or three samples.) An inhibition dose-response curve was determined for each test compound and the IC50 value calculated. Table I lists IC50 's for illustrative examples of the compounds of this invention.

Molecules are shown by their SMILES.

In general, IC50 refers to the concentration needed to halve the response being measured.

As to `CCOC(=O)c1ccc(Cn2cnc3cnccc32)cc1` [1(B), Ethyl 4-(1H-imidazo[4,5-c]pyridin-1-ylmethyl)benzoate], the IC50 stood at 46 µM. As to `CCOC(=O)CCCCn1cnc2cnccc21` [7(B), Ethyl 5-(1H-imidazo[4,5-c]pyridin-1-yl)pentanoate], the IC50 worked out at 185 µM. Then `CCOC(=O)c1ccc(Cn2cnc3cccnc32)cc1` [14(A), Ethyl 4-(3H-imidazo[4,5-b]pyridin-3-ylmethyl)benzoate], with 58 µM.

For the compound `c1cc2ncn(CCCCc3nnnn3C3CCCCC3)c2cn1` [12(A), 3-[4-(1-Cyclohexyl-1H-tetrazol-5-yl)butyl]-3H-imidazo[4,5-c]pyridine], the IC50 is 56 µM. `O=C(c1ccc(Cn2cnc3ccncc32)cc1)N1CCOCC1` [Example 4, [4-(3H-imidazo[4,5-c]pyridin-3-ylmethyl)phenyl](4-morpholinyl)methanone]: the IC50 was found to be 215 µM. In the case of `c1cnc2c(c1)ncn2CCCCc1nnnn1C1CCCCC1` [16(A), 3-[4-(1-Cyclohexyl-1H-tetrazol-5-yl)butyl]-3H-imidazo[4,5-b]pyridine], the IC50 was 118 µM. As to `CCOC(=O)CCCCCn1cnc2cnccc21` [8(B), Ethyl 6-(1H-imidazo[4,5-c]pyridin-1-yl)hexanoate], the IC50 was determined as 20.5 µM. Turning to `CCOC(=O)CCCCn1cnc2ccncc21` [7(A), Ethyl 5-(3H-imidazo[4,5-c]pyridin-3-yl)pentanoate], the half-maximal inhibitory concentration (IC50) stood at 500 µM. With `CCOC(=O)CCCn1cnc2ccncc21` [6(A), Ethyl 4-(3H-imidazo[4,5-c]pyridin-3-yl)butanoate], the IC50 was determined as 140 µM. Consider `c1cc2c(cn1)ncn2CCCCc1nnnn1C1CCCCC1` [12(B), 1-[4-(1-Cyclohexyl-1H-tetrazol-5-yl)butyl]-1H-imidazo[4,5-c]pyridine], for which the IC50 is 8 µM. Then `CN(C(=O)CCCCCCn1cnc2ccncc21)C1CCCCC1` [11(A), N-Cyclohexyl-N-Methyl-7-(3H-imidazo[4,5-c]pyridin-3-yl)heptanamide], with 500 µM; and `CCOC(=O)CCCCCCn1cnc2cnccc21` [9(B), Ethyl 7-(1H-imidazo[4,5-c]pyridin-1-yl)heptanoate], with 20 µM; and `CCOC(=O)c1cccc(Cn2cnc3cnccc32)c1` [2(B), Ethyl 3-(1H-imidazo[4,5-c]pyridin-1-ylmethyl)benzoate], with 80 µM.

For the compound `CN(C(=O)c1ccc(Cn2cnc3cnccc32)cc1)C1CCCCC1` [Example 5, N-Cyclohexyl-N-methyl-4-(1H-imidazo[4,5-c]pyridin-1-yl-methyl)benzamide], the IC50 came to 5 µM. For the compound `CCOC(=O)c1ccc(Cn2cnc3ccncc32)cc1` [1(A), Ethyl 4-(3H-imidazo[4,5-c]pyridin-3-ylmethyl)benzoate], the IC50 was found to be 136 µM. For `c1cnc2ncn(CCCCc3nnnn3C3CCCCC3)c2c1` [16(B), 1-[4-(1-Cyclohexyl-1H-tetrazol-5-yl)butyl]-1H-imidazo[4,5-b]pyridine], the IC50 turned out to be 112 µM. For `O=C(c1ccc(Cn2cnc3cnccc32)cc1)N1CCOCC1` [Example 3, [4-(1H-imidazo[4,5-c]pyridin-1-ylmethyl)phenyl](4-morpholinyl)methanone], the IC50 was found to be 49.5 µM.

Consider `CCOC(=O)c1ccc(Cn2cnc3ncccc32)cc1` [14(B), Ethyl 4-(1H-imidazo[4,5-b]pyridin-1-ylmethyl)benzoate], for which the IC50 is 29 µM. The same measure for `CCOC(=O)CCCCCn1cnc2ccncc21` [8(A), Ethyl 6-(3H-imidazo[4,5-c]pyridin-3-yl)hexanoate]: 102 µM; for `CCOC(=O)CCCCCCn1cnc2ccncc21` [9(A), Ethyl 7-(3H-imidazo[4,5-c]pyridin-3-yl)heptanoate]: 48 µM. Turning to `CCOC(=O)C(C)(C)CCCCn1cnc2cnccc21` [10(B), Ethyl 2,2-dimethyl-6-(1H-imidazo[4,5-c]pyridin-1-yl)hexanoate], the IC50 was 15 µM. Consider `O=C(c1ccc(Cn2cnc3ncccc32)cc1)N1CCOCC1` [Example 15, [4-(1H-Imidazo[4,5-b]pyridin-1-ylmethyl)phenyl](4-morpholinyl)methanone], for which the IC50 was 87 µM. With `c1cc2c(cn1)ncn2CCCCCc1nnnn1C1CCCCC1` [Example 13, 1-[5-(1-Cyclohexyl-1H-tetrazol-5-yl)pentyl]-1H-imidazo[4,5-c]pyridine], the IC50 is 33 µM.

Regarding `CCOC(=O)C(C)(C)CCCCn1cnc2ccncc21` [10(A), Ethyl 2,2-dimethyl-6-(3H-imidazo[4,5-c]pyridin-3-yl)hexanoate], the IC50 turned out to be 43.5 µM. Regarding `CCOC(=O)c1cccc(Cn2cnc3ccncc32)c1` [2(A), Ethyl 3-(3H-imidazo[4,5-c]pyridin-3-ylmethyl)benzoate], the IC50 came to 165 µM.

The values are drawn from patent US4804658A, “Imidazopyridine derivatives and pharmaceutical compositions” (G. D. Searle & Co., priority 1986, dated 1989).
